Test results from ChEMBL document CHEMBL4715760, “Balancing potency, metabolic stability and permeability in pyrrolopyrimidine-based EGFR inhibitors” (Eur J Med Chem, 2016).
pIC50: −log10 of the molar value.

What was measured:
[1] = target: Protein kinase C alpha type (Homo sapiens) (UniProt P17252); assay: Inhibition of human full length GST-tagged PRKCA expressed in insect cells at 500 nM using Ser/Thr 07 as substrate incubated for 1 hr in presence of ATP at its Km concentration by Z'-LYTE assay relative to control
[2] = target: Tyrosine-protein kinase JAK2 (Homo sapiens) (UniProt O60674); assay: Inhibition of human recombinant GST tagged JAK2 catalytic domain expressed in baculovirus expression system at 500 nM using Tyr 06 as substrate incubated for 1 hr in presence of ATP at its Km concentration by Z'-LYTE assay relative to control
[3] = target: Serine/threonine-protein kinase pim-2 (Homo sapiens) (UniProt Q9P1W9); assay: Inhibition of recombinant full length GST-tagged human PIM2 expressed in baculovirus expression system at 500 nM using Ser/Thr 07 as substrate incubated for 1 hr in presence of ATP at its Km concentration by Z'-LYTE assay relative to control
Serine/threonine-protein kinase pim-2 (Homo sapiens), sequence (Q9P1W9 whole entry, looked up): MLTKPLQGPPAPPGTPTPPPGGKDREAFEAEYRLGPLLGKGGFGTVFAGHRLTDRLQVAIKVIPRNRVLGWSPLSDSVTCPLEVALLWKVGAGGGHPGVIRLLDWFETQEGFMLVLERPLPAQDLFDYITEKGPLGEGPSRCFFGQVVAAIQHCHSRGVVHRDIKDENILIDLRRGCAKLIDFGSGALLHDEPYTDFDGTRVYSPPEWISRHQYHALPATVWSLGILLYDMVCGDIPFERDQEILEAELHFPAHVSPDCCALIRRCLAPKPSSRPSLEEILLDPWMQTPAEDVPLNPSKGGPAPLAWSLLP

[4] = target: Tyrosine-protein kinase HCK (Homo sapiens) (UniProt P08631); assay: Inhibition of recombinant full length N-terminal GST-tagged human HCK expressed in baculovirus expression system at 500 nM using Tyr 02 as substrate incubated for 1 hr in presence of ATP at its Km concentration by Z'-LYTE assay relative to control
Tyrosine-protein kinase HCK (Homo sapiens), sequence (P08631 2-526 limits assumed): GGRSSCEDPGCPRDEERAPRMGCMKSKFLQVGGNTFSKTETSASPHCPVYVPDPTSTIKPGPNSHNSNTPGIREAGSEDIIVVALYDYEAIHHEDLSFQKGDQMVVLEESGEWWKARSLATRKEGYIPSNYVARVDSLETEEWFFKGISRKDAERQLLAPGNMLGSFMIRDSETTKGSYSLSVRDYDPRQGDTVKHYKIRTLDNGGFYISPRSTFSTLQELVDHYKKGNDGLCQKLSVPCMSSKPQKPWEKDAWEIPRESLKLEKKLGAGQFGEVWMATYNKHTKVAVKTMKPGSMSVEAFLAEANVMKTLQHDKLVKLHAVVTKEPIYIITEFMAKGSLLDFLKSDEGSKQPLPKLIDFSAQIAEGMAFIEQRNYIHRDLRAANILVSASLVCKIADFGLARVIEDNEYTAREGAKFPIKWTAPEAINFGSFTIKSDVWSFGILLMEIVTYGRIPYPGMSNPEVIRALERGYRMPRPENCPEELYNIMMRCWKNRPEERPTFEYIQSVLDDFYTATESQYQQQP

[5] = target: Platelet-derived growth factor receptor alpha (Homo sapiens) (UniProt P16234); assay: Inhibition of recombinant human GST-tagged PDGFRalpha (550 to 1089 residues) expressed in baculovirus expression system at 500 nM using Tyr 04 as substrate incubated for 1 hr in presence of ATP at its Km concentration by Z'-LYTE assay relative to control
[6] = target: Tyrosine-protein kinase Lck (Homo sapiens) (UniProt P06239); conditions: dose 500.0 nM, time 1.0 hrs
Tyrosine-protein kinase Lck (Homo sapiens), sequence (P06239 2-509 limits assumed): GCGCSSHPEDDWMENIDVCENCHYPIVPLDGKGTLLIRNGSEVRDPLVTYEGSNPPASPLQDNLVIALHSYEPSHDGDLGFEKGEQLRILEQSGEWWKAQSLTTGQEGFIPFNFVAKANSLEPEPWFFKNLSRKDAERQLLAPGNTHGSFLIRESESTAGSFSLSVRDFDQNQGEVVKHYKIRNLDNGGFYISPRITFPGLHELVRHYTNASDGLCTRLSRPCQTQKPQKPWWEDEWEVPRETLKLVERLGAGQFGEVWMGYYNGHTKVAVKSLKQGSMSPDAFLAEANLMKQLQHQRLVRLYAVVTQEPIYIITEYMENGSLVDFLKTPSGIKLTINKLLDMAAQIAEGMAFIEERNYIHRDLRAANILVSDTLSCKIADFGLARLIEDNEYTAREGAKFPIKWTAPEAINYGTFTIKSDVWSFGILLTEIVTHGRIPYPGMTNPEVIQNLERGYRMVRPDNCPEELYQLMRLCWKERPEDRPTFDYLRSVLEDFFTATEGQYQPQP

[7] = target: Aurora kinase B (Homo sapiens) (UniProt Q96GD4); assay: Inhibition of recombinant full length His-tagged human AURKB expressed in baculovirus expression system at 500 nM using Ser/Thr 01 as substrate incubated for 1 hr in presence of ATP at its Km concentration by Z'-LYTE assay relative to control
Aurora kinase B (Homo sapiens), sequence (Q96GD4 whole entry, the tested form may be a part): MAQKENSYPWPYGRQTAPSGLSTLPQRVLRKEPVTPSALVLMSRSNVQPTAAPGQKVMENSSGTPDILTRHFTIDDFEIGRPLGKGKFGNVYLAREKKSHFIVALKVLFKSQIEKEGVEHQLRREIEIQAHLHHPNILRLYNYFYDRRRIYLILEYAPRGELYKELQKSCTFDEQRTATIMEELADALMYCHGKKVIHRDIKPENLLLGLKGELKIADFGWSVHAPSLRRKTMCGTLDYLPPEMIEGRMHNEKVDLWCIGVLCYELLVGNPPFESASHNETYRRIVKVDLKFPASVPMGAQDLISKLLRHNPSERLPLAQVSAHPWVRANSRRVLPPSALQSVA

[8] = target: T1, Ephrin type-A receptor 1 (Homo sapiens) (UniProt P21709); assay: Inhibition of recombinant human GST-tagged EPHA1 (568 to 976 residues) expressed in baculovirus expression system at 500 nM using Tyr 02 peptide as substrate incubated for 1 hr in presence of ATP at its Km concentration by Z'-LYTE assay relative to control
T1 sequence (whole entry): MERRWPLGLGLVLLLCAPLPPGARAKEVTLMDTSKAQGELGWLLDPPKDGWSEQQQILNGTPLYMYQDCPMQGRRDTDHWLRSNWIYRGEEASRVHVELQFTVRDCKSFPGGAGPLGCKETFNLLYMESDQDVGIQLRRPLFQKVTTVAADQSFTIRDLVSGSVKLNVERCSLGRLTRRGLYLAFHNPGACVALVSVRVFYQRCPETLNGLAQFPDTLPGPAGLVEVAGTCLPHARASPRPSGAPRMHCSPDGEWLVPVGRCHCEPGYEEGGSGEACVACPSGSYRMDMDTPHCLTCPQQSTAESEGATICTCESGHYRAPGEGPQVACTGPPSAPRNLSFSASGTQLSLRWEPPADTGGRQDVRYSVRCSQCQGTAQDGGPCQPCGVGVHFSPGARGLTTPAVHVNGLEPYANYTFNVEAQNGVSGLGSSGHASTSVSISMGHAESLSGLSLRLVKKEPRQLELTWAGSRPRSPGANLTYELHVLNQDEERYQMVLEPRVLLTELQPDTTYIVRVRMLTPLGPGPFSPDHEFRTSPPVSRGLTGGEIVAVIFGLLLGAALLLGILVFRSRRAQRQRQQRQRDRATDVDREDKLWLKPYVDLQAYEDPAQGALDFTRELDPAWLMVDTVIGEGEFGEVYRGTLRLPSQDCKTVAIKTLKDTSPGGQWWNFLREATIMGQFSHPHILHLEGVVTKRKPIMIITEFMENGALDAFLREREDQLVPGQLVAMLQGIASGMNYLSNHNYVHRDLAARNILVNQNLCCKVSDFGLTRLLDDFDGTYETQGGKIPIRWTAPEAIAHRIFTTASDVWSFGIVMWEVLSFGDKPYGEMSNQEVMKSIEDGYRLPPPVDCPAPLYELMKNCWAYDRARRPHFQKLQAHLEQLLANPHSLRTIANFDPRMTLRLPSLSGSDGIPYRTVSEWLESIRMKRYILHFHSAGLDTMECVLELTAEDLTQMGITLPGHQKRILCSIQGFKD

[9] = target: Serine/threonine-protein kinase PLK1 (Homo sapiens) (UniProt P53350); assay: Inhibition of recombinant full length human His-tagged PLK1 expressed in baculovirus expression system at 500 nM using Ser/Thr 16 as substrate incubated for 1 hr in presence of ATP at its Km concentration by Z'-LYTE assay relative to control
C-33-A = assay: Antiproliferative activity against human C-33A cells incubated for 72 hrs by ATPlite luminescence assay; assay type: functional, cell-based
BXPC-3 = assay: Antiproliferative activity against human BXPC-3 cells measured for 96 hrs by sytox green dye staining based proliferation assay; assay type: functional, cell-based; conditions: BXPC-3, 96 h
AU565 = assay: Antiproliferative activity against human AU565 cells incubated for 72 hrs by ATPlite luminescence assay; assay type: functional, cell-based; conditions: AU565, 72 h
PC-9 = assay: Antiproliferative activity against human PC9 cells measured for 96 hrs by sytox green dye staining based proliferation assay; assay type: functional, cell-based; conditions: PC-9, 96 h
A549 = assay: Antiproliferative activity against human A549 cells assessed as inhibition of cell growth incubated for 72 hrs by Cell Titer Glo luminescent cell viability assay; assay type: functional, cell-based; conditions: A549, 72 h
K562 = assay: Antiproliferative activity against human K562 cells assessed as inhibition of cell growth incubated for 72 hrs by Cell Titer Glo luminescent cell viability assay; assay type: functional, cell-based; conditions: K562, 72 h
CAL-27 = assay: Antiproliferative activity against human CAL27 cells; assay type: functional, cell-based
FaDu = assay: Antiproliferative activity against human FaDU cells assessed as inhibition of cell growth incubated for 72 hrs by Cell Titer Glo luminescent cell viability assay; assay type: functional, cell-based
[10] = target: T2, Epidermal growth factor receptor (Homo sapiens, UniProt P00533); assay: Inhibition of EGFR (unknown origin) using Tyr 04 peptide as substrate incubated for 1 hr by Z'-LYTE assay
T2 sequence (P00533 whole entry): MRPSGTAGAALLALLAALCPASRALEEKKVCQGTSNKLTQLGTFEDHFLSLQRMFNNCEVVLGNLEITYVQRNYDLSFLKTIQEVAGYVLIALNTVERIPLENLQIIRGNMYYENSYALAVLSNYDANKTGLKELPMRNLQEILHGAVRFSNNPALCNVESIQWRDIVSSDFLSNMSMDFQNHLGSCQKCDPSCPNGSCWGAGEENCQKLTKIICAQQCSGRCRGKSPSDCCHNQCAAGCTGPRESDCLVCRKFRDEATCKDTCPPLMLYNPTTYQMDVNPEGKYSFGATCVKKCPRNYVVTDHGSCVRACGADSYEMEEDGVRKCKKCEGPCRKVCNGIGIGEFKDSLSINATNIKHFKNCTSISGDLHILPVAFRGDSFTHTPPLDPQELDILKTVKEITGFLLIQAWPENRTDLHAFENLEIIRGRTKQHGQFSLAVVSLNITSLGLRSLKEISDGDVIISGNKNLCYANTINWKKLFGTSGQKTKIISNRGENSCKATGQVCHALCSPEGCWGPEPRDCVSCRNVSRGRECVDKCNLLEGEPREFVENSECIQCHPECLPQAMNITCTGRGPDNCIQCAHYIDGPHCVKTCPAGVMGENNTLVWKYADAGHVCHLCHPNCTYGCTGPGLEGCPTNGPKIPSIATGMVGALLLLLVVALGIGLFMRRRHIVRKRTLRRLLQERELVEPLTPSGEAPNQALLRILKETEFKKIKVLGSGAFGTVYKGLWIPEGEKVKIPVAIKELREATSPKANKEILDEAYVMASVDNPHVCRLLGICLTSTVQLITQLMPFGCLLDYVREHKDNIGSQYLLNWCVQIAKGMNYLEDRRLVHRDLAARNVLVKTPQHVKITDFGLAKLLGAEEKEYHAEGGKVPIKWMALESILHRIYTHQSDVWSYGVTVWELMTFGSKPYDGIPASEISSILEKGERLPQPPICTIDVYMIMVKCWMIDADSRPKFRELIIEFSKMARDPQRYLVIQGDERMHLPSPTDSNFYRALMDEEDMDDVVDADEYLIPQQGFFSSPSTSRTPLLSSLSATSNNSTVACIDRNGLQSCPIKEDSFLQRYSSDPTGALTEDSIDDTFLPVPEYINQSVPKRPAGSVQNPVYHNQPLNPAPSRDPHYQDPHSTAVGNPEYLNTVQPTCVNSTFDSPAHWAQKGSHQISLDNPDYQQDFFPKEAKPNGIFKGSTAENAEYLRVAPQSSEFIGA

[11] = target: T2, Epidermal growth factor receptor; conditions: dose 100.0 nM, time 1.0 hrs
[12] = target: Angiopoietin-1 receptor (Homo sapiens) (UniProt Q02763); assay: Inhibition of recombinant human GST-tagged TEK (817 to 1101 residues) expressed in baculovirus expression system at 500 nM using Tyr 05 as substrate incubated for 1 hr in presence of ATP at its Km concentration by Z'-LYTE assay relative to control
Angiopoietin-1 receptor (Homo sapiens), sequence (Q02763 whole entry, the tested form may be a part): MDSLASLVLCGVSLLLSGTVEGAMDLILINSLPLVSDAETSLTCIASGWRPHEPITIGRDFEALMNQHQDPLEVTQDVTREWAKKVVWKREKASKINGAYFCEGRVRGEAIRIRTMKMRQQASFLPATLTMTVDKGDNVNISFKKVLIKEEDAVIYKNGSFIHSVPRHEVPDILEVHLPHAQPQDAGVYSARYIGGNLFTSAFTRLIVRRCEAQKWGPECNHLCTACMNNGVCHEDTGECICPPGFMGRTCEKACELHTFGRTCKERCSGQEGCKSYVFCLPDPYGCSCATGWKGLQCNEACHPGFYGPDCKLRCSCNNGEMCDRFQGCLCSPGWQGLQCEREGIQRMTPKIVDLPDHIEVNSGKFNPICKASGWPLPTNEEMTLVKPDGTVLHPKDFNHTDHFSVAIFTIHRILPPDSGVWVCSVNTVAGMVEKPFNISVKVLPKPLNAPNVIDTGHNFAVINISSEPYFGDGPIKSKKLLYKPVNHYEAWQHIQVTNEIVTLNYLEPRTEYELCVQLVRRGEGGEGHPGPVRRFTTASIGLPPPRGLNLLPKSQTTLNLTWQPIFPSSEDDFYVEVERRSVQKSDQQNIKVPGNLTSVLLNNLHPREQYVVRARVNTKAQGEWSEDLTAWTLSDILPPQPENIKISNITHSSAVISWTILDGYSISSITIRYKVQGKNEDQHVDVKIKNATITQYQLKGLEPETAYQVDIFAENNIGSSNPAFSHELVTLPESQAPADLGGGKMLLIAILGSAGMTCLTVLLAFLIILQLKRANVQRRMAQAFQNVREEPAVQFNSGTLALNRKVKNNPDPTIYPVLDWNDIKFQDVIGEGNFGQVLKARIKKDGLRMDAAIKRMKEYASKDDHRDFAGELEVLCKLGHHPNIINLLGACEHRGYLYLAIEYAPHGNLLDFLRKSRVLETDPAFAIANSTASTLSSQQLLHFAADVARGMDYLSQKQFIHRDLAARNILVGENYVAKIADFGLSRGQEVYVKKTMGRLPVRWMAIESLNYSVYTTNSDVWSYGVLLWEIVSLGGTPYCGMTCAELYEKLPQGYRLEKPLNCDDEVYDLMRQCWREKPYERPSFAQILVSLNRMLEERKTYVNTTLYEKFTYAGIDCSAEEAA

| Structure (SMILES) | inhibition [1] | inhibition [2] | inhibition [3] | inhibition [4] | inhibition [5] | inhibition [6] | inhibition [7] | inhibition [8] | inhibition [9] | pIC50 (C-33-A) | pIC50 (BXPC-3) | pIC50 (AU565) | pIC50 (PC-9) | pIC50 (A549) | pIC50 (K562) | pIC50 (CAL-27) | pIC50 (FaDu) | pIC50 [10] | inhibition [11] | inhibition [12] |
| --- | --- | --- | --- | --- | --- | --- | --- | --- | --- | --- | --- | --- | --- | --- | --- | --- | --- | --- | --- | --- |
| CCOc1ccccc1-c1cc2c(N[C@H](CO)c3ccccc3)ncnc2[nH]1 | 1% | 11% | 2% | 27% | -8% | 26% | 1% | 13% | -3% |  |  |  |  |  |  |  |  |  |  |  |
| C#Cc1cccc(Nc2ncnc3cc(OCCOC)c(OCCOC)cc23)c1 [ERLOTINIB] |  |  |  |  |  |  |  |  | -9% | 6.05 | 5.72 | 5.48 | > 7.00 | < 4.00 | 4.26 | 5.89 | < 4.96 |  |  |  |
| OC[C@@H](Nc1ncnc2[nH]c(-c3ccccc3)cc12)c1ccccc1 | 17% | 34% | 9% | 29% |  | 13% | 13% | 19% | 1% | 6.15 | 4.82 | 5.60 | > 7.00 | < 4.00 | 4.82 | 5.57 | < 4.48 | 9.40 | 99% | 1% |
| COc1ccccc1-c1cc2c(N[C@H](CO)c3ccccc3)ncnc2[nH]1 | 15% | 11% | 5% | 30% | 6% | 17% | 5% | 15% |  |  |  |  |  |  |  |  |  | 9.10 | 100% | 0% |
| CN(C)CCNCc1ccc(-c2cc3c(N[C@H](CO)c4ccccc4)ncnc3[nH]2)cc1F |  | 5% | -5% | 36% |  | 81% | 17% | 48% | -3% |  |  |  |  |  |  |  |  |  |  |  |
| OCC[C@@H](Nc1ncnc2[nH]c(-c3ccccc3)cc12)c1ccccc1 | -9% | -1% | 6% | 31% |  | 29% | 7% | 13% | -5% |  |  |  |  |  |  |  |  |  |  | -10% |
